# Assay results taken from the supplement of paper PMC10307832.
# Legend:
# Test in all cases: relative viability (nuclei count vs DMSO), 5 days (fraction); higher = more cells survive
# 201T = test system: 201T
# Summary of the method: (§1)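 Nuclei were stained with Hoechst during a one-step fixation (final 0.05% Triton X-100, 1% formaldehyde, 1 ug/ml Hoechst) carried out 5 days after dosing, then counted on 4× images. The cells, lung cancer lines in 1536-well plates, had been dosed by pin tool the day after seeding with one drug alone or a fixed anchor-drug dose plus five library-drug doses (not always all listed) in √10 steps. Relative viability is the nuclei count in treated wells divided by that in vehicle wells, and each value is the median of duplicate plates.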
# COR-L 105 = test system: COR-L 105
# Summary of the method: as §1
# ChaGo-K-1 = test system: ChaGo-K-1
# Summary of the method: as §1
# EKVX = test system: EKVX
# Summary of the method: as §1
# H3255 = test system: H3255
# Summary of the method: as §1
# HARA = test system: HARA
# Summary of the method: as §1
# HCC-827 = test system: HCC-827
# Summary of the method: as §1
# HOP-62 = test system: HOP-62
# Summary of the method: as §1
# LCLC-103H = test system: LCLC-103H
# Summary of the method: as §1
# LOU-NH91 = test system: LOU-NH91
# Summary of the method: as §1
# NCI-H1975 = test system: NCI-H1975
# Summary of the method: as §1
# NCI-H2126 = test system: NCI-H2126
# Summary of the method: as §1
# NCI-H2228 = test system: NCI-H2228
# Summary of the method: as §1
# NCI-H23 = test system: NCI-H23
# Summary of the method: as §1
# NCI-H2405 = test system: NCI-H2405
# Summary of the method: as §1
# NCI-H3122 = test system: NCI-H3122
# Summary of the method: as §1
# NCI-H596 = test system: NCI-H596
# Summary of the method: as §1
# NCI-H650 = test system: NCI-H650
# Summary of the method: as §1
# NCI-H661 = test system: NCI-H661
# Summary of the method: as §1
# NCI-H727 = test system: NCI-H727
# Summary of the method: as §1
# PC-3 [JPC-3] = test system: PC-3 [JPC-3]
# Summary of the method: as §1
# SK-LU-1 = test system: SK-LU-1
# Summary of the method: as §1
# SW 900 = test system: SW 900
# Summary of the method: as §1
structure (smiles),measurement,setting,value
Cc1cn(-c2cc(NC(=O)c3ccc(C)c(Nc4nccc(-c5cccnc5)n4)c3)cc(C(F)(F)F)c2)cn1 [Nilotinib] + COc1cccc2cc(-c3nc([C@H]4CC[C@H](C(=O)O)CC4)n4ncnc(N)c34)[nH]c12 [OSI-027] (partner 0.5 µM),relative viability,201T; first compound 0.001 µM,0.734
same,relative viability,201T; first compound 0.003162 µM,0.666
same,relative viability,201T; first compound 0.01 µM,0.77
same,relative viability,201T; first compound 0.03162 µM,0.317
same,relative viability,201T; first compound 0.1 µM,0.667
same,relative viability,COR-L 105; first compound 0.001 µM,0.831
same,relative viability,COR-L 105; first compound 0.003162 µM,0.683
same,relative viability,COR-L 105; first compound 0.01 µM,0.741
same,relative viability,COR-L 105; first compound 0.03162 µM,0.577
same,relative viability,COR-L 105; first compound 0.1 µM,0.586
same,relative viability,ChaGo-K-1; first compound 0.001 µM,0.49
same,relative viability,ChaGo-K-1; first compound 0.003162 µM,0.643
same,relative viability,ChaGo-K-1; first compound 0.01 µM,0.485
same,relative viability,ChaGo-K-1; first compound 0.03162 µM,0.471
same,relative viability,ChaGo-K-1; first compound 0.1 µM,0.274
same,relative viability,EKVX; first compound 0.001 µM,0.541
same,relative viability,EKVX; first compound 0.003162 µM,0.719
same,relative viability,EKVX; first compound 0.01 µM,0.904
same,relative viability,EKVX; first compound 0.03162 µM,0.665
same,relative viability,EKVX; first compound 0.1 µM,0.671
same,relative viability,H3255; first compound 0.001 µM,0.547
same,relative viability,H3255; first compound 0.003162 µM,0.566
same,relative viability,H3255; first compound 0.03162 µM,0.501
same,relative viability,H3255; first compound 0.1 µM,0.621
same,relative viability,HARA; first compound 0.001 µM,0.523
same,relative viability,HARA; first compound 0.003162 µM,0.633
same,relative viability,HARA; first compound 0.01 µM,0.469
same,relative viability,HARA; first compound 0.03162 µM,0.179
same,relative viability,HARA; first compound 0.1 µM,0.231
same,relative viability,HCC-827; first compound 0.003162 µM,0.822
same,relative viability,HCC-827; first compound 0.01 µM,0.85
same,relative viability,HCC-827; first compound 0.03162 µM,0.603
same,relative viability,HOP-62; first compound 0.001 µM,0.699
same,relative viability,HOP-62; first compound 0.003162 µM,0.831
same,relative viability,HOP-62; first compound 0.01 µM,0.909
same,relative viability,HOP-62; first compound 0.03162 µM,0.581
same,relative viability,HOP-62; first compound 0.1 µM,0.559
same,relative viability,LCLC-103H; first compound 0.001 µM,0.406
same,relative viability,LCLC-103H; first compound 0.003162 µM,0.58
same,relative viability,LCLC-103H; first compound 0.01 µM,0.508
same,relative viability,LCLC-103H; first compound 0.03162 µM,0.432
same,relative viability,LCLC-103H; first compound 0.1 µM,0.407
same,relative viability,LOU-NH91; first compound 0.001 µM,0.687
same,relative viability,LOU-NH91; first compound 0.003162 µM,0.728
same,relative viability,LOU-NH91; first compound 0.01 µM,0.736
same,relative viability,LOU-NH91; first compound 0.03162 µM,0.67
same,relative viability,LOU-NH91; first compound 0.1 µM,0.727
same,relative viability,NCI-H1975; first compound 0.001 µM,0.598
same,relative viability,NCI-H1975; first compound 0.003162 µM,0.53
same,relative viability,NCI-H1975; first compound 0.01 µM,0.149
same,relative viability,NCI-H1975; first compound 0.03162 µM,0.409
same,relative viability,NCI-H1975; first compound 0.1 µM,0.32
same,relative viability,NCI-H2126; first compound 0.001 µM,0.673
same,relative viability,NCI-H2126; first compound 0.003162 µM,0.706
same,relative viability,NCI-H2126; first compound 0.01 µM,0.572
same,relative viability,NCI-H2126; first compound 0.03162 µM,0.582
same,relative viability,NCI-H2126; first compound 0.1 µM,0.544
same,relative viability,NCI-H2228; first compound 0.003162 µM,0.631
same,relative viability,NCI-H2228; first compound 0.01 µM,0.588
same,relative viability,NCI-H2228; first compound 0.03162 µM,0.449
same,relative viability,NCI-H2228; first compound 0.1 µM,0.217
same,relative viability,NCI-H23; first compound 0.001 µM,0.58
same,relative viability,NCI-H23; first compound 0.003162 µM,0.418
same,relative viability,NCI-H23; first compound 0.01 µM,0.418
same,relative viability,NCI-H23; first compound 0.03162 µM,0.361
same,relative viability,NCI-H23; first compound 0.1 µM,0.412
same,relative viability,NCI-H2405; first compound 0.001 µM,0.594
same,relative viability,NCI-H2405; first compound 0.003162 µM,0.617
same,relative viability,NCI-H2405; first compound 0.01 µM,0.568
same,relative viability,NCI-H2405; first compound 0.03162 µM,0.609
same,relative viability,NCI-H2405; first compound 0.1 µM,0.432
same,relative viability,NCI-H3122; first compound 0.001 µM,0.961
same,relative viability,NCI-H3122; first compound 0.003162 µM,1.33
same,relative viability,NCI-H3122; first compound 0.01 µM,1.24
same,relative viability,NCI-H3122; first compound 0.03162 µM,0.66
same,relative viability,NCI-H3122; first compound 0.1 µM,0.467
same,relative viability,NCI-H596; first compound 0.001 µM,0.725
same,relative viability,NCI-H596; first compound 0.003162 µM,0.655
same,relative viability,NCI-H596; first compound 0.01 µM,0.57
same,relative viability,NCI-H596; first compound 0.03162 µM,0.306
same,relative viability,NCI-H596; first compound 0.1 µM,0.415
same,relative viability,NCI-H650; first compound 0.001 µM,0.406
same,relative viability,NCI-H650; first compound 0.003162 µM,0.526
same,relative viability,NCI-H650; first compound 0.01 µM,0.486
same,relative viability,NCI-H650; first compound 0.03162 µM,0.441
same,relative viability,NCI-H650; first compound 0.1 µM,0.362
same,relative viability,NCI-H661; first compound 0.001 µM,0.672
same,relative viability,NCI-H661; first compound 0.003162 µM,0.69
same,relative viability,NCI-H661; first compound 0.03162 µM,0.538
same,relative viability,NCI-H661; first compound 0.1 µM,0.634
same,relative viability,NCI-H727; first compound 0.001 µM,0.57
same,relative viability,NCI-H727; first compound 0.003162 µM,0.477
same,relative viability,NCI-H727; first compound 0.01 µM,0.697
same,relative viability,NCI-H727; first compound 0.03162 µM,0.44
same,relative viability,NCI-H727; first compound 0.1 µM,0.344
same,relative viability,PC-3 [JPC-3]; first compound 0.001 µM,0.702
same,relative viability,PC-3 [JPC-3]; first compound 0.003162 µM,0.838
same,relative viability,PC-3 [JPC-3]; first compound 0.01 µM,0.785
same,relative viability,PC-3 [JPC-3]; first compound 0.03162 µM,0.703
same,relative viability,PC-3 [JPC-3]; first compound 0.1 µM,0.475
same,relative viability,SK-LU-1; first compound 0.001 µM,0.313
same,relative viability,SK-LU-1; first compound 0.003162 µM,0.322
same,relative viability,SK-LU-1; first compound 0.01 µM,0.302
same,relative viability,SK-LU-1; first compound 0.03162 µM,0.258
same,relative viability,SK-LU-1; first compound 0.1 µM,0.265
same,relative viability,SW 900; first compound 0.001 µM,0.46
same,relative viability,SW 900; first compound 0.003162 µM,0.492
same,relative viability,SW 900; first compound 0.01 µM,0.595
same,relative viability,SW 900; first compound 0.03162 µM,0.354
same,relative viability,SW 900; first compound 0.1 µM,0.465
